What is called melting point is the temperature of the solid-liquid transition. The term Ki denotes a dissociation constant, usually derived from enzyme kinetics or from competition with a known ligand.

Structures can show the parent of a compound that is named as a salt. Where two headings read alike, the source gives them in different places.

From patent publication US6403593B1, “Triazole compounds and the use thereof” (Abbott Laboratories, priority 1995, dated 2002) come the findings set out here.

In one data set the target is T1, human D3 receptor (Homo sapiens, UniProt P35462).
T1 construct: host or cells: CCL 1.3 mouse fibroblasts
T1 sequence (P35462 whole entry): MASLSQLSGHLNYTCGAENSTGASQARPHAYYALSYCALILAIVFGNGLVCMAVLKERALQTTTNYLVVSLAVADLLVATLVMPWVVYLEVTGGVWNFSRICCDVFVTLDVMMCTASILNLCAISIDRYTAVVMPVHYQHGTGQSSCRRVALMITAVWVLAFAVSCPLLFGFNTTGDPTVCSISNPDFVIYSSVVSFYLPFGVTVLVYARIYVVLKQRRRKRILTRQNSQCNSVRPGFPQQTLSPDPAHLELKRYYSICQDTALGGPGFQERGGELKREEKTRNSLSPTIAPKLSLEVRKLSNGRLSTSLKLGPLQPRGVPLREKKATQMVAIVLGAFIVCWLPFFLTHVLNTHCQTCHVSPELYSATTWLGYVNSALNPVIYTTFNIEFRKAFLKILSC
Kind of data set: D3 binding assay (125I-iodosulpiride). The note with it: for Selectivity KiD2/KiD3: ratio of D2 (3H-spiperone) Ki to D3 (125I-sulpiride) Ki. The protocol: Cloned human D3 receptor-expressing CCL 1.3 mouse fibroblasts obtained from Res. Biochemicals Internat. One Strathmore Rd., Natick, Mass. 01760-2418 USA, were used for the binding studies.
The D3-expressing cells where grown in RPMI-1640 containing 10% fetal calf serum (GIBCO No. 041-32400 N); 100 U/ml penicillin and 0.2% streptomycin (GIBCO BRL, Gaithersburg, Md., USA). After 48h, the cells were washed with PBS and incubated with 0.05% trypsin-containing PBS for 5 min. Neutralization with medium was then carried out, and the cells were collected by centrifugation at 300×g. To lyze the cells, the pellet was briefly washed with lysis buffer (5 mM tris-HCl, pH 7.4, with 10% glycerol) and then incubated in a concentration of 10^7 cells/ml of lysis buffer at 4° C. for 30 min. The cells were centrifuged at 200×g for 10 min and the pellet was stored in liquid nitrogen.
For the D3 receptor binding assay, the membranes were suspended in incubation buffer (50 mM tris-HCl, pH 7.4, with […], 5 mM KCl, 2 mM CaCl2, 2 mM MgCl2, 10 μM quinolinol, 0.1% ascorbic acid and 0.1% BSA) in a concentration of about 10^6 cells/250 μl of assay mixture and incubated at 30° C. with 0.1 nM ^125iodosulpiride in the presence and absence of test substance. The non-specific binding was determines using 10^−6 M spiperone.
After 60 min, the free and the bound radioligand was separated by filtration through GF/B glasd fiber filters (Whatman, England) on a Skatron cell collector (Skatron, Lier, Norway), and the filters were washed with ice-cold tris-HCl buffer, pH 7.4. The radioactivity collected on the filters was quantified using a Packard 2200 CA ligand scintillation counter.
The Ki values were determined by non-linear regression analysis using the LIGAND program.

[1] abbreviates: cloned human D3 receptor in CCL 1.3 mouse fibroblast membranes, 0.1 nM 125I-iodosulpiride, read-out: D3 125I-sulpiride Ki.

`CNc1nnc(SCCCN2CCN(c3cccc(C(F)F)c3)CC2)n1C` (as salt: hydrochloride) [Example 37] registered a melting point of 234 to 235 °C.

For the compound `Cn1c(N)nnc1SCCCN1CCN(c2cccc(C(F)(F)F)c2)CC1` [Example 10], on human D3 receptor, the inhibition constant (Ki) was 4.5 nM and the “Selectivity KiD2/KiD3” value came out at 49.

Regarding `Cn1c(N)nnc1SCCCN1CCN(c2cc(C(C)(C)C)cc(C(C)(C)C)c2)CC1` [Example 15], the Ki on human D3 receptor (setting [1]) amounted to 8.8 nM. Also, the “Selectivity KiD2/KiD3” value at human D3 receptor was 58.

Turning to `CCn1c(N)nnc1SCCCN1CCN(c2cccc(C(F)F)c2)CC1` [Example 24], the Ki on human D3 receptor (setting [1]) is 1.8 nM. Further, the “Selectivity KiD2/KiD3” value on human D3 receptor amounted to 67.

On to `CNc1nnc(SCCCN2CCN(c3cccc(C(F)F)c3)CC2)n1C` [Example 37], for which the Ki at human D3 receptor (setting [1]) came to 1.7 nM. For the same compound, the “Selectivity KiD2/KiD3” value on human D3 receptor stood at 176.

For the compound `Cc1cc(N2CCN(CCCSc3nnc(N)n3C)CC2)nc(-n2cccc2)n1` [Example 41], the melting point was in the range of 65 to 67 °C. Besides, the Ki on human D3 receptor (setting [1]) is 8.1 nM. Moreover, the “Selectivity KiD2/KiD3” value at human D3 receptor is on record as 185.

As for `CC(=CCN1CCN(c2cc(C(F)(F)F)nc(C(C)(C)C)n2)CC1)CSc1nnc(N)n1C` [Example 42], the melting point was 67 to 72 °C. At human D3 receptor (setting [1]), the inhibitory constant (Ki) worked out at 13.4 nM. For the same compound, on human D3 receptor, the “Selectivity KiD2/KiD3” value is on record as 182.

With `Cc1nnc(/C=C/CN2CCN(c3ccccc3)CC2)n1-c1ccccc1` [reference compound], the “affinity for the D3 receptor (in words)” value at human D3 receptor (D3 binding assay) is given as “virtually no affinity”. Besides, the Ki on human D3 receptor (setting [1]) stood at 4100 nM.
